Test results reported in ChEMBL document CHEMBL1201862, “PubChem BioAssay data set” (2004).
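All cell lines were grown in 96-well plates and treated with compound for 48 hours. The concentration for 50% growth inhibition is given as GI50.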 Calls of active or inactive are those of the source. No stated cut-off is given here; in the data, active = GI50 up to about 1.1 µM and inactive = higher.

How the values were obtained:
Assay in all cases: DTP human tumour cell line panel, 48 h
[1] = tested on: CCRF-CEM
[2] = tested on: COLO 205
[3] = tested on: HCT-116
[4] = tested on: HT-29
[5] = tested on: K562
[6] = tested on: LOX IMVI
[7] = tested on: MOLT-4
[8] = tested on: Malme-3M
[9] = tested on: NCI/ADR-RES
[10] = tested on: SF-539
[11] = tested on: SK-MEL-28
[12] = tested on: SK-MEL-2
[13] = tested on: SK-MEL-5
[14] = tested on: SK-OV-3
[15] = tested on: SNB-19
[16] = tested on: U-251
[17] = tested on: UACC-62
[18] = tested on: UO-31
[19] = tested on: SR
[20] = tested on: TK-10

Measured: GI50

CNC(=O)OCc1nc(SC)n(C)c1CO
inactive: [1] > 100 µM | [2] > 100 µM | [3] > 100 µM | [4] > 100 µM | [5] > 100 µM | [6] > 100 µM | [7] > 100 µM | [8] 1.68 µM | [9] > 100 µM | [10] > 100 µM | [11] > 100 µM | [12] > 46.9 µM | [13] > 100 µM | [14] > 100 µM | [15] > 100 µM | [16] > 100 µM | [17] > 100 µM | [18] > 100 µM

CC1=NN(C(=O)c2ccccc2)C(=O)C1/N=N/c1ccccc1C(=O)O (stereo not given)
inactive: [1] 3.81 µM | [2] > 72.6 µM | [3] 3.24 µM | [4] 52.1 µM | [5] 2.54 µM | [6] 11.5 µM | [7] 4.09 µM | [8] 10.9 µM | [9] 4.76 µM | [10] 3.78 µM | [11] 89.1 µM | [12] 6.21 µM | [13] 34 µM | [14] > 25.2 µM | [15] 5.75 µM | [16] 4.79 µM | [17] 3.1 µM | [18] 3.75 µM

c1ccc2c(c1)c1ccccc1n2Cn1c2ccccc2c2ccccc21
inactive: [1] > 100 µM | [4] > 100 µM | [5] > 100 µM | [6] > 100 µM | [7] > 100 µM | [8] > 100 µM | [9] > 100 µM | [11] > 100 µM | [12] > 100 µM | [13] > 100 µM | [15] > 100 µM | [19] > 100 µM | [20] > 100 µM | [16] > 100 µM | [17] > 100 µM | [18] > 100 µM

CCc1cc2c(oc3cc4ccccc4cc32)c(=O)[nH]1
inactive: [3] > 10 µM | [4] > 10 µM | [6] > 10 µM | [8] > 10 µM | [9] > 10 µM | [10] > 10 µM | [12] > 10 µM | [15] > 10 µM | [19] > 10 µM | [20] > 10 µM | [18] > 10 µM

CCN(CC)CCSc1nc(-c2c[nH]c3nc(C)ccc3c2=O)n[nH]1
inactive: [1] > 100 µM | [2] > 100 µM | [3] > 100 µM | [4] > 100 µM | [5] > 100 µM | [6] > 100 µM | [7] > 100 µM | [8] > 100 µM | [9] > 100 µM | [11] > 100 µM | [12] > 100 µM | [13] > 100 µM | [15] > 100 µM | [20] > 100 µM | [16] > 100 µM | [17] > 100 µM | [18] > 100 µM

CSC1=N/C(=C\c2ccccc2)C(=O)N1CN1CCCCC1
inactive: [1] 52.5 µM | [2] 65.5 µM | [3] 33.2 µM | [4] 22.5 µM | [5] 26.7 µM | [6] 38.5 µM | [7] 37.5 µM | [8] 54.5 µM | [9] 20 µM | [11] > 100 µM | [12] > 100 µM | [13] 43.1 µM | [14] > 100 µM | [15] 46.1 µM | [19] 31.3 µM | [20] 99.3 µM | [16] 72.6 µM | [17] 58.3 µM | [18] 39.5 µM

Cc1c2cc[n+](C)cc2c(COC2OC(CO)C(O)C2O)c2c3ccccc3n(C)c12 (stereo not given)
inactive: [1] > 87.9 µM | [2] > 100 µM | [3] > 100 µM | [4] > 100 µM | [5] > 100 µM | [6] > 100 µM | [7] 45.5 µM | [8] 62.1 µM | [9] > 97.7 µM | [10] 90.4 µM | [11] 53 µM | [12] > 100 µM | [13] 61.8 µM | [14] > 88.7 µM | [15] 14.5 µM | [16] 48.6 µM | [17] > 96.8 µM | [18] > 100 µM

CN(C)CCNC(=O)c1cccc2c1Nc1ccccc1S2
inactive: [1] 12.4 µM | [2] 11.8 µM | [3] 12.2 µM | [4] 11.7 µM | [5] 14.9 µM | [6] 12.2 µM | [7] 10.6 µM | [8] 14.8 µM | [9] 16.2 µM | [10] 15.2 µM | [11] 14.4 µM | [12] 16.3 µM | [13] 13.2 µM | [14] 16.1 µM | [15] 9.75 µM | [16] 13.7 µM | [17] 14.6 µM | [18] 10.1 µM
